Data taken from patent publication US6972319B1, “Pituitary adenylate cyclase activating peptide (PACAP)receptor 3 (R3) agonists and their pharmacological methods of use” (priority 1999, dated 2005).
No end group written: not given here.

Tests used:
[1] = target: T1, PACAP-R2 (Homo sapiens, UniProt P32241); assay: Cyclic AMP SPA on CHO cells transfected with PACAP-R2; type: cell-based; conditions: cAMP SPA, concentration at which 50% of maximum PACAP27 activity is achieved, NA = no detectable activities, read-out: R2 EC50
T1 construct: expressed in transfected cells; host or cells: CHO cells
T1 sequence (P32241 31-457): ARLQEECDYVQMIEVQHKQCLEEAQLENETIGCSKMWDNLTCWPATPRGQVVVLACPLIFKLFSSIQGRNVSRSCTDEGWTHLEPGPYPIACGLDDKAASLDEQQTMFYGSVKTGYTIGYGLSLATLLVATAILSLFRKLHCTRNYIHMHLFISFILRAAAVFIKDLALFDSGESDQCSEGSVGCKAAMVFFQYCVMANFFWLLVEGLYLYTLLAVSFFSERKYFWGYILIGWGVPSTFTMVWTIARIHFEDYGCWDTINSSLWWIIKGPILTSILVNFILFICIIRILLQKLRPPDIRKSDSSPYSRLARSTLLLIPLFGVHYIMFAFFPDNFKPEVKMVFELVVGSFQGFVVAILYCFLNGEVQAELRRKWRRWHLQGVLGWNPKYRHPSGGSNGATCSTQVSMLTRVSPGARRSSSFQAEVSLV
Protocol: CHO cells expressing the PACAP R3 were plated in 96-well plates (Costar) at 8×10^4 cell/well and grown at 37 C. for 24 hours in α MEM+nucleosides+glutamine (Giobco BRL), 10% FBS, 100 μg/ml Pen/Strep, 0.3 mg/ml glutamine, 1 mM HEPES, 0.5 mg/ml Geneticin (Gibco BRL). The media was removed and the plates were washed with PBS. The cells were incubated with a peptide, in Hepes-PBS-BSA with 0.4 mg/mlSoybean Trypsin Inhibitor, 0.5 mg/ml Bacitracin, 100 uM IBMX, for 15 min at 37 C. Cyclic AMP in the cell extracts was quantitated using the cAMP SPA direct screening assay system (Amersham Pharmacia Biotech Inc, Piscataway, N.J.,). The peptides shown in Table 3 were assayed for cAMP activity.
EC50 is defined as the concentration of the polypeptide at which 50% of maximum PACAP27 activity is achieved. “NA” denotes no detectable activities. “R3 Selectivity” is derived from the ratio of EC50 at R2 versus EC50 at R3.

[2] = target: T2, PACAP-R3 (Homo sapiens, UniProt P41587); assay: Cyclic AMP SPA on CHO cells expressing PACAP R3; type: cell-based; parameters: expressed in transfected cells; host or cells: CHO cells (Geneticin selection); conditions: for EC50: cAMP SPA, CHO cells transfected with PACAP-R3, concentration at which 50% of maximum PACAP27 activity is achieved, NA = no detectable activities, read-out: R3 EC50; for R3 Selectivity: ratio of EC50 at R2 versus EC50 at R3
T2 sequence (P41587 24-438): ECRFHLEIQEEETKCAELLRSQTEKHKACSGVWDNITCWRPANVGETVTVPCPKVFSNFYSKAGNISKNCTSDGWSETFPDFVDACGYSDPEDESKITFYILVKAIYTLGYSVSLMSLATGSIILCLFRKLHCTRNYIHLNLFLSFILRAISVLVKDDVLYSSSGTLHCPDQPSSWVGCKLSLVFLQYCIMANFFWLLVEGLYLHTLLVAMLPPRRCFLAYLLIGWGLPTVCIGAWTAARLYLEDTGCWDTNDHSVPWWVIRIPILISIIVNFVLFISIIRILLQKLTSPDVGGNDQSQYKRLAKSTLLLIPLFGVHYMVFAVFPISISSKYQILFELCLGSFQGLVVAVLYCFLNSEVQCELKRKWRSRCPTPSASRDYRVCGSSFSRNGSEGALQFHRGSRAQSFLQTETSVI
How it was run: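 Transfected CHO cells grown 24 h were exposed to peptide for 15 min at 37 C in Hepes-PBS-BSA containing 100 uM IBMX, 0.4 mg/ml soybean trypsin inhibitor and 0.5 mg/ml bacitracin. Cellular cAMP was measured by scintillation proximity assay. EC50 is the peptide concentration giving 50% of maximal PACAP27 activity.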

Substance	EC50 [1] [nM]	EC50 [2] [nM]	R3 Selectivity [2]
HSDAVFTDNYTRLRKQMAAKKYLNSIKN [Peptide R3P49]	8	0.27	30
HSDAVFTDNYTRLRKQMAKKKYLNSIQNRI [rR3P186]	70	1.6	44
HSDAVFTDNYTRLRKQVAVKKYLQSILKK [Peptide R3P89]	0.9	0.06	15
HSDAVFTENYTKLRKQLAAKKYLNDLKK [Peptide R3P5]	200	7	30
H-HSDGIFTESYSRYRKQMAVKKYLAALKKKRYKQRVKNK [Peptide R3P6]	220	80	3
HSDAVFTDNYTRLRKQMAAKKYLNSIKNMR [Peptide R3P143]	6	0.2	30
HSDAVFTDNYTRLRKQMAAKKYLNSIKKGGT [Peptide R3P26]	> 100	0.55	>180
HSDAVFTDNYTRLRKQMAAKKYLQSIKNKRY [Peptide R3P69]	90	0.5	190
HSDAVFTDNYTRLRKQMARKKYLNSIRNRI [rR3P192]	40	0.6	60
HSDGIFTDSYSRYRKQMAVKKKLAAVL-NH2 [PAC22]	2	15	0.1
HSDAVFTDNYTRLRKQMAAKKYLNSIHNKR [Peptide R3P122]	10	0.2	50
HSDAVFTDNYTRLRKQMAVKKYLNDLKKGGT [Peptide R3P14]	50	17	3
HSDAVFTDNYTRLRKQMAFKKYLNSIKNKR [Peptide R3P100]	10	0.3	30
HSDAVFTDNYTRLRKQMAVKKYLNSIKKK [Peptide R3P58]	55	0.32	170
HSDAVFTDNYTRLRKQMAAKKYLNSILN [Peptide R3P47]	0.7	0.12	6
HSDAVFTDNYTRLRKQMAAKKYLNSIKNLR [Peptide R3P142]	6	0.2	30
HSDAVFTDNYTRLRKQLAAKKYLNSIKKGGT [Peptide R3P22]	38	1.6	24
HSDAVFTDNYTRLRKQMAAKKYLNSIKNKE [Peptide R3P156]	100	1	100
HSDAVFTDNYTRLRKQMAAKKYLNSIKNKK [Peptide R3P161]	60	0.2	300
H-HSDAVFTDNYTRLRKQLAAKKYLNDIKKNQ [Peptide R3P35]	> 100	2.6	>40
H-HSDGIFTDSYSEYRKQMAVKKYLAAVL-NH2 [PAC12]	150	3	50
HSDAVFTDNYTRLRKQMASKKYLNSIRNRI [rR3P193]	200	1.9	110
